Experimental findings from publication PMC3349712, “DipA, a Pore-Forming Protein in the Outer Membrane of Lyme Disease Spirochetes Exhibits Specificity for the Permeation of Dicarboxylates” (PLoS ONE, 2012) are described below.

Molecules are shown by their SMILES.

The target in this experiment is T1, DipA (Borreliella burgdorferi, UniProt O51379).
T1 construct: gene BB_0418; native protein from outer membrane fraction of B. burgdorferi B31 delta-p66, hydroxyapatite chromatography in Genapol, untagged; predicted 20-residue signal peptide removed; 36 kDa; minor truncated OspA/OspB in fraction
T1 sequence (O51379 entry or part of it): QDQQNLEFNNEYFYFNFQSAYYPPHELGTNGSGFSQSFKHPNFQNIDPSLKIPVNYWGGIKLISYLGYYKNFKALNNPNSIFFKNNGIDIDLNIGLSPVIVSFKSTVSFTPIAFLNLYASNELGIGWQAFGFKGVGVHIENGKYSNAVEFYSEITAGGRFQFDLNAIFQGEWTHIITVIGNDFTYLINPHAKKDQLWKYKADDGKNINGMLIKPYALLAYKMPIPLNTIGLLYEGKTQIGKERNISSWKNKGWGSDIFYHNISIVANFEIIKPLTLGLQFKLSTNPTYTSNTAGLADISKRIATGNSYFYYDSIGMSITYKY
Nature of the experiment: biochemical. The experiment is classed as binding. The source says:
planar lipid bilayer, titration of channel conductance block on DipA
Turning to `O=C(O)CCC(=O)C(=O)O` [2-Oxoglutarate], the dissociation constant (Kd) is 286 µM.

In the case of `N[C@@H](CC(=O)O)C(=O)O` [Aspartate], the Kd is 769 µM.

The compound `O=C(O)CC(O)(CC(=O)O)C(=O)O` [Citrate] gave a Kd of 76.9 µM.

`O=C(O)/C=C/C(=O)O` [Fumarate] had a Kd of 2380 µM.

For `N[C@@H](CCC(=O)O)C(=O)O` [Glutamate], the Kd is 800 µM.

The compound `O=C(O)C[C@H](O)C(=O)O` [Malate] gave a Kd of 769 µM.

For the compound `O=C(O)/C=C\C(=O)O` [Maleate], the Kd was 35.3 µM.

`O=C(O)CC(=O)C(=O)O` [Oxaloacetate] showed a Kd of 50.3 µM.

For the compound `O=C(O)c1ccccc1C(=O)O` [Phthalate], the Kd is 175 µM.

With `CC(=O)C(=O)O` [Pyruvate], the Kd was 2130 µM.

Compound `O=C(O)CCC(=O)O` [Succinate] showed a Kd of 164 µM.
